Tests used:
[1] = tested on: infarcted hearts; experiment: myocardial infarction rat model (permanent LAD ligation), neovascularization in infarct zone; format: in vivo, Sprague-Dawley rats; settings: vehicle-treated: mainly fibrosis
Procedure: Myocardial infarction (MI) animal model was induced in male Sprague-Dawley rats (300-350 g) by permanent ligation of the left anterior descending (LAD) coronary artery. The experimental rats were anesthetized with intraperitoneal pentobarbital (50 mg/kg), intubated, and mechanically ventilated with room air. The angioenhancin compound of formula I or formula II (2 mg/kg), dissolved in water (0.5 ml), was orally administrated to MI rats (n=6) for one day post ligation, daily for two weeks with equivalent amount of water to the vehicle-treated rats (n=6). For sham-operated rats (n=5), thoracotomy was performed without ligation. Animals were sacrificed after final echocardiography measurements.
Evaluation of neovascularization in infarcted hearts. Echocardiography was recorded on day 7 and 14 post operations. The hearts of the sacrificed rats were removed and washed with PBS. For histological studies, the left ventricles of the experimental rats were removed and cut from apex-to-base in 3 transverse slices and embedded in paraffin. To quantify the density of capillaries in infarct zones, the vessels were counted and averaged in 6 randomly selected high power view fields (HPF, 40×) on each section. Blinded capillary counts were performed on 6 hearts per group by two investigators. The results were expressed as mean±SD capillaries per HPF.

[2] = tested on: human umbilical vein endothelial cells (HUVEC); experiment: differentiation of human umbilical vein endothelial cells (HUVEC); format: cell-based; settings: for differentiation of HUVEC, dose dependence: versus vehicle treated cells (proliferation, no differentiation)
Description: FIG. 2. illustrates a series of micrographs showing differentiation of vessel endothelial cells (HUVEC) induced by angioenhancin compounds of formula I and II. Panels a & b represent the vehicle treated cells showing proliferation but no sign of differentiation.

[3] = tested on: ischemic zone of myocardium; experiment: subclinical chronic coronary heart disease (cCHD) rat model (partial LAD ligation), neovascularization in ischemic zone; format: in vivo, Sprague-Dawley (SD) rats; settings: for vascular density in treated ischemic hearts versus vehicle-treated hearts (FIG. 4): 2 weeks post ligation; for chronic ischemic heart histology, 2 weeks post LAD partial ligation (FIG. 4): compared with vehicle-treated hearts (C1)
Procedure: (§1) The subclinical cCHD rat model was produced as described. Briefly, male Sprague-Dawley (SD) rats, weighing 150-200 g, were used. Following proper anesthesia, left thoracotomy was performed on the animals. The pericardium was opened and a probe or surgical suture thread (11-0) was placed onto the epicardium along the LAD. […] The experimental rats with ST segment constantly depressed above 0.1 mV were selected and randomly divided into two groups. […] The rats in vehicle-treated group (n=6) were treated with equivalent period and amount of H2O. For the sham operation group (n=6), left thoracotomy was performed and the pericardium was opened but with no LAD ligation.
Measurement of neovascularization in the ischemic zone. Left ventricles from the rats sacrificed on day 14 post-ligation were removed and sliced from apex to base in 3 transverse slices. The slices were fixed in formalin and embedded in paraffin. Vascular density was determined on the histology section samples by counting the number of vessels within the ischemic zone using a light microscope under a high power field (HPF) (40×). Eight random and non-overlapping HPFs within the ischemic field were used for counting all the vessels in each section. The number of vessels in each HPF was averaged and expressed as the number of vessels per HPF. Vascular counts were performed by two investigators in a blind fashion.
The capillary density in the ischemic zone of the angioenhancin treated myocardium was on average 12 capillaries (12±3.8) filled with blood cells per HPF, calculated from 8 randomly selected view fields on each of the 3 slides from 6 angioenhancin treated hearts on day 14.

[4] = tested on: VEGF, VEGFR, EGF and FGF; experiment: RT-PCR of angiogenesis-associated genes in treated heart tissues and endothelial cells; format: in vivo
[5] = tested on: ischemic hearts; experiment: echocardiography assessment of heart function in cCHD rats; format: in vivo, SD rats; settings: 5 mg/kg, echocardiography day 2, 7 and 14, progressively lowered in vehicle treated rats
Procedure: as §1
Echocardiography Assessment of Heart Function. In all, 12 SD rats received baseline echocardiography before any experimental procedures. Echocardiography was recorded under controlled anesthesia using a Toshiba Aplio XG Echocardiography with PLT-1202S linear array transducer S10-MHz phased-array transducer. M-mode tracing and 2-dimensional (2D) echocardiography images were recorded from the parasternal long- and short-axis views. Short axis view was at the papillary muscles level. Left ventricular end-systolic and end-diastolic dimensions, as well as systolic and diastolic wall thickness, were measured from the M-mode tracings by using the leading-edge convention of the American Society of Echocardiography. For each M-mode measurement, at least three consecutive cardiac cycles were sampled. All rats in both groups received echocardiography measurements on day 2, 7 and 14 post ligation.

[6] = tested on: human aorta endothelial cells (HAEC); experiment: capillary-like tube formation of human aorta endothelial cells on fibrin matrix; settings: for Approx. No. of Tubes: HAEC on fibrin matrix, Ctrl 9; for Approx. No. of Tubes / capillary-like networks compared to vehicle-treated cells: 22 hours; for capillary-like networks compared to vehicle-treated cells: HAEC
Procedure: Cells were incubated at 37° C. and equilibrated in 95% air-5% CO2. Fibrin matrices were prepared by polymerization of fibrinogen solution (5 mg fibrinogen/ml serum-free medium) using low concentrations of α-thrombin (2.5 U/ml). After polymerization, gels were soaked in culture medium containing 10% FBS for 2 h at 37° C. to inactivate the thrombin. HAEC were seeded on the surface of the three-dimensional matrix in 96-well plates in Ham's F-12 medium and cultured for 22 hours with different concentrations of angioenhancin compounds of formula I and formula II in a growth medium. Non-treated control was added with equivalent amount of growth medium. Images were captured and the angiogenic properties were determined by calculating the total number of tubes formed.

Compound	infarcted region histology, 2 weeks post LAD ligation (FIG. 4) [1]	differentiation of HUVEC (cell phenotype, FIG. 2) ([2]; 10 μg/ml)	differentiation of HUVEC (cell phenotype, FIG. 2) ([2]; 20 μg/ml)	differentiation of HUVEC (cell phenotype, FIG. 2) ([2]; 40 μg/ml)	differentiation of HUVEC, dose dependence [2]	vascular density in treated ischemic hearts versus vehicle-treated hearts (FIG. 4) [3]	chronic ischemic heart histology, 2 weeks post LAD partial ligation (FIG. 4) [3]	expressions of angiogenesis-associated genes (VEGF, VEGFR, EGF and FGF), RT-PCR [4]	left ventricle ejection fraction (LVEF) [5]	left ventricle fraction shortening (LVFS) [5]	Approx. No. of Tubes ([6]; 5 μg/ml)	Approx. No. of Tubes ([6]; 10 μg/ml)	Approx. No. of Tubes ([6]; 20 μg/ml)	growth of capillary-like tubes versus non-treated control (FIG. 3) ([6]; HAEC passage 7, 22 hours, concentration not given)	capillary-like networks compared to vehicle-treated cells [6]	growth of capillary-like tube structures versus non-treated control (FIG. 3) ([6]; 5 μg/ml, HAEC passage 7, 22 hours)
O=C(OC1OC2COC(=O)c3cc(O)c(O)c(O)c3-c3c(cc(O)c(O)c3O)C(=O)OC2C2OC(=O)c3cc(O)c(O)c(O)c3-c3c(cc(O)c(O)c3O)C(=O)OC12)c1cc(O)c(O)c(O)c1 (centres unmarked) [Formula II, Potentillin]	many newly formed vessels filled with red blood cells observed	refractive and elongated cells	thin and elongated phenotype with the typical characteristic of differentiation of vessel endothelial cells	thin, elongated and circled phenotype forming tube-like structures	enhanced differentiation of HUVEC in a dose dependent manner	higher	more blood vessels	up-regulated	progressively restored	progressively restored	~67	~46	~45	enhanced growth of capillary-like tubes more than that in non-treated control, but less than that in angioenhancin-I treated	formed more capillary-like networks	–
pedunculagin [Formula I]	Many newly formed collateral vessels filled with red blood cells were found	–	enhanced differentiation showing thin and elongated cells	thin and elongated phenotype forming tube-like structures	enhanced differentiation of HUVEC in a dose dependent manner	higher	more blood vessels	up-regulated	progressively restored	progressively restored	~45	~57	~68	–	formed more capillary-like networks	enhanced growth of capillary-like tube structures much more than that in non-treated control

Reference: US20120077761A1, “COMPOSITIONS AND METHODS FOR THE PREVENTION AND TREATMENT OF CORONARY HEART DISEASES” (Generex Pharmaceuticals, Inc, priority 2009, published 2012)
